# Results published in patent US12692232B2, “Indole carboxamide compound, preparation therefor and use thereof” (NANJING RUISHUNING MEDICAL TECHNOLOGY CO., LTD., priority 2021, dated 2026).
# Tests used:
# Format in all cases: in vivo
# [1] = test system: H22 liver subcutaneous transplanted tumor; assay: Mouse model of H22 liver subcutaneous transplanted tumor; settings: 20 mg/kg injected intraperitoneally 14 days (positive drug)
# Experimental: (§1) The method was as follows:
# Experimental procedure: H22 hepatoma cell suspension was adjusted to 1×10^7/mL after dilution and counting with normal saline, and 0.2 mL per mouse was inoculated on the back of the mice. After 24 hours, the mice were weighed and administered drug at a dose of 0.1 mL/10 g once a day, wherein the mice in the solvent control group and the treatment groups were administered 0.9% sodium chloride solution and the compound of the present invention, respectively, for 14 days, and the mice in the CTX group were injected intraperitoneally for 14 days. The mice were weighed after 14 days. The animals were executed and the tumor blocks were removed and weighed separately. The tumor inhibition rate was calculated according to the following formula: tumor inhibition rate (%)=(1−average tumor weight in a treatment group/average tumor weight in the solvent control group)×100%.
# [2] = test system: rat model of pulmonary hypertension induced by monocrotaline; assay: Rat model of pulmonary hypertension induced by monocrotaline
# Experimental: The preventive effect of the compounds of the present invention (as exemplified by compound 1-1 obtained in Example 1) on pulmonary hypertension was determined using a rat model of pulmonary hypertension induced by monocrotaline. The method was as follows:
# Grouping of animals: 70 male SD rats with weigh of 200±20 g were randomly divided into 7 groups, i.e., a normal control group, a monocrotaline (MCT) model group, a treatment group of low-dose compound 1-1 (10 mg/kg) (MCT), a treatment group of medium-dose compound 1-1 (25 mg/kg) (MCT), a treatment group of high-dose compound 1-1 (50 mg/kg) (MCT), a treatment group of medium-dose indole analogue 3-[(1-methyl-1H-indole-2-carbonyl)amino]propionic acid (25 mg/kg) disclosed in CN2019107285315 (MCT), and a sildenafil group (150 mg/kg) (MCT), with 10 rats in each group.
# Experimental procedure: MCT was prepared as a 2% solution with a mixture of ethanol and saline (2:8) and the solution was injected intraperitoneally once at a dose of 60 mg/kg body weight in all groups except the normal control group. Each rat in the normal control group was injected intraperitoneally once with a solution prepared from ethanol and saline in a volume ratio of 2:8. Compound 1-1 obtained in Example 1, the indole analogue 3-[(1-methyl-1H-indole-2-carbonyl)amino]propionic acid disclosed in CN2019107285315, or the positive drug sildenafil was administered by gavage to the mice in the treatment groups on the day of modelling, and saline was administered by gavage to the mice in the normal control group and the MCT model group. The drugs were administered by gavage once a day for 28 days until 12 hours before test.
# Determination of hemodynamic indexes: a polyethylene plastic microcatheter filled with heparin solution (0.9% sodium chloride solution+10 U/mL heparin) was inserted into the right external jugular vein of a rat, and the other end of the microcatheter was connected to a miniature pressure transducer to monitor the pressure changes. […] After 30 minutes of stabilization, the POWERLAB multi-channel intelligent physiological signal acquisition and recording system was applied to acquire, record and analyze the indexes.
# Determination of the index of right ventricular (RV) hypertrophy: at the end of the experiment, the heart was removed by dissection of the thorax and the atrial tissue was cut off. The right ventricle (RV), left ventricle (LV), and interventricular septum (S) were isolated along the edge of the interventricular septum, and the RV, LV, and S were weighed after absorbing water with filter paper and the ratio RV/(LV+S) was used to reflect the degree of RV hypertrophy.
# Pathological examination of pulmonary vessels: tissue blocks were taken from the same site in the lower lobe of the right lung and fixed in 10% neutral formaldehyde (pH=7.4) for 2 days. Routine paraffin embedding, serial sections, H&E staining and light microscopy were performed to observe morphological changes in small pulmonary arteries.
# Effect on inflammatory factors in lung tissue: Lung tissues were collected from each group of rats, homogenates of lung tissue were prepared and centrifuged and supernatants were collected. The protein level in the supernatant was determined by Coomassie brilliant blue method, and tumor necrosis factor-α (TNF-α) in rats was determined by an ELISA kit (Beijing 4A Biotech Co., Ltd.). […]
# [3] = test system: mouse model of focal segmental glomerulosclerosis; assay: Mouse model of focal segmental glomerulosclerosis (adriamycin)
# Experimental: as §1
# Each mouse in the model group, the treatment groups and the positive control group was injected once into the tail vein with adriamycin at a dose of 8 mg/kg, and each mouse in the control group was injected once into the tail vein with saline at the same dose. The mice in the control group and model group were administered equal amount of saline by gavage for 6 weeks, and the mice in other group were administered corresponding compound in doses by gavage at a fixed time each day for 6 weeks after modelling with adriamycin. The body weights were recorded weekly and urine samples were collected.
# Collection of urine samples: animals were placed in separate metabolic cages by group on days 0, 7, 14, 21, 28, 35, and 42 after modelling, with free access to water and no access to food, and urine samples were collected from each group of mice.
# Determination of urine protein level using Coomassie brilliant blue (CBB) method: urine protein level was determined by urine protein quantitative test kit (Nanjing Jiancheng Bioengineering Institute). CBB working solution was prepared according to the kit instructions. 0.05 mL of each urine sample was mixed with 3 mL of CBB working solution, the mixture was allowed to stand for 5 min, and the absorbance value of each sample was determined at 595 nm. The urine protein levels samples of each group was calculated according to the protein standardization formula: urine protein level (mg/L)=(measured OD−blank OD)/(standard OD−blank OD)×563 mg/L.
# Collection of serum samples: orbital blood from each mouse was collected in an EP tube, placed at 37° C. for 20 minutes, and centrifuged to obtain an upper layer of serum.
# Collection of plasma samples: orbital blood from each mouse was collected in an anticoagulation tube, mixed well and stored at 4° C. for later use.
# Determination of urea nitrogen level in plasma by diacetyl monoxime method: urea nitrogen level was determined by using blood urea nitrogen (BUN) test kit (Nanjing Jiancheng Bioengineering Institute). According to the kit instructions, 0.05 mL of anticoagulated plasma sample was mixed with 1 mL of oxime solution and 1 mL of acid working solution, and the mixtures were placed in a boiling water bath for 15 minutes. A UV-visible spectrophotometer was used to determine the absorbance values of each tube at a wavelength of 520 nm. Urea nitrogen levels in plasma samples of each group were calculated according to the formula: Urea nitrogen level (mmol/L)=(measured OD value−blank OD value)/(standard OD value−blank OD value)×10 mmol/L.
# Collection of kidney tissue samples: kidneys were taken from mice after anesthesia, cut horizontally, and the upper part of the kidneys was embedded in OCT embedding box, sliced with frozen slicer and stored at −20° C.
# H&E staining was used to assess pathological glomerular changes, and the procedure was as follows: frozen sections were fixed with 95% ethanol for 2 minutes, hydrated with distilled water, stained with hematoxylin for 3 minutes, washed with distilled water for 3 minutes, differentiated using 1% hydrochloric acid in ethanol for 10 seconds, washed with distilled water for 30 seconds, returned to blue in running water for 5 minutes, washed in distilled water for 30 seconds, stained with eosin for 30 seconds, washed with 75% and 85% ethanol for 20 seconds each, dehydrated rapidly with 95% ethanol for 1 minute, dehydrated with anhydrous ethanol, cleared to transparency in xylene (1 minute×3), and finally sealed with neutral balsam and photographed with a biomicroscope.
# [4] = test system: mouse model of renal fibrosis (UUO); assay: Mouse model of renal fibrosis (unilateral ureteral obstruction, UUO)
# Experimental: The therapeutic effect of the compounds of the present invention (as exemplified by Compound 1-1 obtained in Example 1) on renal fibrosis was determined using a mouse model of renal fibrosis. The method was as follows:
# Grouping of animals: male C57BL/6J mice aged 8 weeks were given adaptive feeding for 3 days and grouped into a sham operation group, a sham operation-treatment group, a Unilateral ureteral obstruction (UUO) model group, a low-dose (10 mg/kg) treatment group, a medium-dose (25 mg/kg) treatment group, a high-dose (50 mg/kg) treatment group, a medium-dose (25 mg/kg) treatment group of indole analogue 3-[(1-methyl-1H-indole-2-carbonyl)amino]propionic acid disclosed in CN2019107285315, and a positive control group of losartan (50 mg/kg), with 10 animals in each group. Mice in the model and the treatment groups were anesthetized by intraperitoneal injection of 0.5% sodium pentobarbital at a dose of 0.1 mL/10 g. The mice were fixed on the operating table and cut open in layers from the right side of the mid-abdomen to locate the left kidney, and the ends of the ureter were ligated, while the ureter was cut off between the two ligations; the sham operation group was operated as described above and the ligations were not performed. Post-operative organs were repositioned, sutured, and sterilized with iodophor after suturing was completed. Immediately after operation, the drug was administered by gavage once daily for 14 days. Urine sample collection: animals were placed in separate metabolic cages by group on days 0, 5, 10 and 14 after modelling, without food or water, and urine samples were collected from each group of mice.
# The protein levels in urine were determined using Coomassie brilliant blue (CBB) method by using urine protein quantitative test kit (Nanjing Jiancheng Bioengineering Institute). CBB working solution was prepared according to the kit instructions. 0.05 mL of each urine sample was mixed with 3 mL of CBB working solution, the mixture was left to stand for 5 min, and the absorbance value of each sample was determined at 595 nm. The protein levels in each group of urine samples were calculated according to the protein standardization formula: urine protein levels (mg/L)=(measured OD−blank OD)/(standard OD−blank OD)×563 mg/L.
# Collection of serum sample: orbital blood from each mouse was collected in an EP tube, placed at 37° C. for 20 minutes, and centrifuged to obtain the upper layer of serum.
# Collection of plasma sample: orbital blood from each mouse was collected in an anticoagulation tube, mixed well and stored at 4° C. for later use.
# Determination of creatinine levels in urine and serum by the picric acid colorimetric method: creatinine levels in urine and serum were determined by using the creatinine test kit (Nanjing Jiancheng Bioengineering Institute). According to the kit instructions, 1.5 mL of urine sample or serum sample and 0.5 mL of picric acid solution, 0.5 mL of 0.5 mol/L sodium hydroxide solution were mixed, heated in water bath at 37° C. for 10 minutes. The absorbance value of each sample was determined using a UV spectrophotometer at a wavelength of 510 nm. Creatinine levels in samples of each group were calculated according to the formula: creatinine level (μmol/L) in serum or urine=(measured OD value−blank OD value)/(standard OD value−blank OD value)×50 μmol/L×(dilution ratio 201).
# Determination of urea nitrogen level in plasma by diacetyl monoxime method: urea nitrogen level was determined was determined by using blood urea nitrogen (BUN) test kit (Nanjing Jiancheng Bioengineering Institute). According to the kit instructions, 0.05 mL of anticoagulated plasma samples were mixed with 1 mL of oxime solution and 1 mL of acid working solution, and the mixtures were placed in a boiling water bath for 15 min. A UV-visible spectrophotometer was used to determine the absorbance values of each tube at a wavelength of 520 nm. […]
# [5] = MCT + sildenafil (150 mg/kg) gavage 28 days
# [6] = gavage once daily 14 days, not statistically different (P>0.05)
smiles,measurement,setting,value
"O=P1(N(CCCl)CCCl)NCCCO1 (stereo not drawn) [CTX, cyclophosphamide, reference compound]",tumor inhibition rate,[1],60.3%
"CCCc1nn(C)c2c(=O)[nH]c(-c3cc(S(=O)(=O)N4CCN(C)CC4)ccc3OCC)nc12 [sildenafil, reference compound]",RV/(LV + S),[2]; [5],0.32 ± 0.02
same,TNF-α in lung tissue,[2]; [5],0.600 ± 06 g/g protein
same,mPAP,[2]; MCT + sildenafil (150 mg/kg) gavage once a day 28 days,23.6 ± 3.4 mmHg
"CCCCC1=NC2(CCCC2)C(=O)N1Cc1ccc(-c2ccccc2-c2nnn[nH]2)cc1 [irbesartan, reference compound]",serum urea nitrogen level reduced compared with the model group,"[3]; 50 mg/kg gavage, 6 weeks",9.0%
same,serum urea nitrogen level,"[3]; 50 mg/kg gavage, 6 weeks, model 16.08±0.23",14.63 ± 0.19 mmol/L
same,urine protein level,"[3]; 50 mg/kg gavage, 6 weeks, model 547.0±106.3",382 ± 80.8 mg/L
same,"glomerular lesions, renal tissue pathology (H&E, PAS, Sirius red stain)","[3]; FIG. 1, control compound 25 mg/kg, irbesartan 50 mg/kg",shows the same effect
same,body weight compared with the FSGS group,"[3]; gavage daily 6 weeks, compound 1-1 10, 25, 50 mg/kg, control compound 25 mg/kg, irbesartan 50 mg/kg",increased body weights
"CCCCc1nc(Cl)c(CO)n1Cc1ccc(-c2ccccc2-c2nn[nH]n2)cc1 [losartan, reference compound]",creatinine level reduced compared with the model group,[4]; 50 mg/kg gavage 14 days,19.0%
same,urea nitrogen level reduced compared with the model group,[4]; 50 mg/kg gavage 14 days,29.7%
same,urine protein level reduced compared with the model group,[4]; 50 mg/kg gavage 14 days,46.6%
same,urea nitrogen level,"[4]; 50 mg/kg gavage 14 days, model 17.56±0.48",12.35 ± 0.37 mmol/L
same,serum creatinine level,"[4]; 50 mg/kg gavage 14 days, model 32.48±0.87",26.32 ± 1.12 µmol/L
same,urine protein level,"[4]; 50 mg/kg gavage 14 days, model 888.5±264.8",475 ± 112 mg/L
same,"extent of renal fibrosis, pathological staining (H&E, Masson, Sirius red)","[4]; FIG. 2, control compound 25 mg/kg, losartan 50 mg/kg",shows the same effect
same,body weight compared with the UUO model group,[4]; [6],slight increase in body weight
same,kidney weight compared with the UUO model group,[4]; [6],slight decrease in kidney weight
